Molecules are shown by their SMILES. Read-outs that look alike come from different tables or passages of the source.

The results in this text go back to paper PMC7470163, “Effects of ticagrelor on the pharmacokinetics of rivaroxaban in rats” (Pharmaceutical Biology, 2020).

The data set in a line: In vivo pharmacokinetic experiment: oral rivaroxaban in rats with or without ticagrelor pre-treatment (plasma, UPLC-MS/MS). More on the design: species or system Sprague-Dawley rats. As to conditions: for AUC(0-t) / AUC(0-inf) / Cmax / half-life / MRT inf / MRT last: po; for MRT inf: read-out: MRT (0–∞); for MRT last: read-out: MRT(0–t); for CLint scaled: read-out: CL (text: intrinsic clearance) (converted). The protocol: Chromatographic separation was performed using the Acquity UPLC system (Waters Corp., Milford, MA, USA) and ACQUITY UPLC HSS T3 column (2.1 × 100 mm, 1.8 μm) at 40 °C. The mobile phase comprising acetonitrile (A) and 0.1% formic acid water (B) was set with a flow rate of 0.40 mL/min. The gradient programme was applied as follows: 0–0.5 min, 30% A; 0.5–1 min, 30–95% A; 1–2 min, 95% A; […], 95% A; 2.5–2.6 min, 95–30% A; 2.6–3 min, 30% A. The total time required for analysis was 3 min. The sample manager underwent a strong wash (methanol water, 50/50, V/V) and a weak wash (methanol water, 10/90, V/V) after each injection.
XEVO TQD triple quadrupole mass spectrometer was equipped with electrospray ionization (ESI), and multiple-reaction monitoring (MRM) mode was selected for quantization. The precursor ion and product ion were m/z 435.93→144.81 for rivaroxaban and m/z 285.1→193.1 for diazepam (internal standard, IS), respectively. The optimal MS parameters were defined as follows: the cone voltages were set at 35 V and 50 V for rivaroxaban and IS; the collision energies were set at 30 V and 25 V for rivaroxaban and IS. Masslynx 4.1 software (Waters Corp., Milford, MA, USA) was used for data acquisition, and the UPLC-MS/MS chromatogram of blank plasma that was spiked with rivaroxaban and IS was shown below (Figure 2).
Ten specific pathogen-free (SPF) grade Sprague–Dawley rats (male, 220 ± 20 g) were provided by Wenzhou Medical University Laboratory Animal Research Centre. All experimental procedures and protocols were reviewed and approved by the Animal Care and Use Committee of Wenzhou Medical University and were in accordance with the Guide for the Care and Use of Laboratory Animals (ID Number: wydw2019-650). Ten rats were randomly divided into two groups: the ticagrelor group (n = 5) and the control group (n = 5). Rats were bred at 25 °C with 60 ± 5% humidity and a 12 h dark/light cycle. Enough tap water and normal chow were provided ad libitum. The rats were placed under the above conditions for one week before initiating the experiment.
The ticagrelor group was pre-treated with ticagrelor by oral gavage at a dose of 10 mg/kg/day (dissolved in CMC-Na solution) for two weeks before the administration of rivaroxaban. The control group also received equal amounts of the vehicle (CMC-Na solution). Rivaroxaban was dissolved in dimethyl sulfoxide (DMSO) and was then diluted with polyethylene glycol 200 so that DMSO accounted for 5% of the total volume. Each group of rats was given an oral gavage of rivaroxaban at a dose of 10 mg/kg, and then blood was collected via the rat’s tail vein for analysis at 0.083, 0.25, 0.5, 1, 2, 3, 4, 6, 8, 12 and 24 h. Samples were collected into 1.5 mL centrifuge tubes and were immediately centrifuged at 4000 rpm for 10 min.
Every 100 µL of rat plasma was added with 200 µL of acetonitrile in 0.5 μg/mL of IS, followed by vortex mixing for 1 min. After centrifugation at 13000 rpm for 15 min, 5 µL of supernatant was prepared for UPLC-MS/MS system to analyse.
The GraphPad (version 8.0; GraphPad Software Inc., San Diego, CA, USA) was applied to calculate IC50 and plot plasma concentration-time curves. The pharmacokinetic parameters using non-compartmental analysis were calculated by DAS (version 3.2.8; Wenzhou Medical University, China). Statistical comparisons within groups were conducted by SPSS (version 25.0; SPSS Inc., Chicago, IL, USA), using Student’s t-test. Values of p < 0.05 were considered statistically significant.

[1] abbreviates: male, Sprague-Dawley, rat, plasma, 10 mg/kg, rivaroxaban 10 mg/kg oral, rats pre-treated with ticagrelor 10 mg/kg/day for 14 days.
[2] abbreviates: male, Sprague-Dawley, rat, plasma, 10 mg/kg, rivaroxaban 10 mg/kg oral, rats, control group (no ticagrelor).
Where [3] appears, read: male, Sprague-Dawley, rat, plasma, 10 mg/kg, rivaroxaban 10 mg/kg oral, rats, without ticagrelor pre-treatment.
[4] abbreviates: male, Sprague-Dawley, rat, plasma, rivaroxaban 10 mg/kg oral, rats, control group (no ticagrelor).
[5] abbreviates: rats, oral ticagrelor 10 mg/kg/day for 14 days vs control.
The mark [6] stands for this setting: rivaroxaban 10 mg/kg oral, rats pre-treated with ticagrelor 10 mg/kg/day for 14 days.

Take `O=C(NC[C@H]1CN(c2ccc(N3CCOCC3=O)cc2)C(=O)O1)c1ccc(Cl)s1` [Rivaroxaban]: under “male, Sprague-Dawley, rat, plasma, 10 mg/kg, rivaroxaban 10 mg/kg oral single dose, rats pre-treated with ticagrelor 10 mg/kg/day oral for 14 days, n=5, mean ± SD”, the AUC(0-t) (as a rule, exposure summed from dosing to a finite time, without extrapolation to infinity) was 3480 ± 754 ng·h/mL. Moreover, the AUC(0-t) (male, Sprague-Dawley, rat, plasma, 10 mg/kg, rivaroxaban 10 mg/kg oral single dose, rats, control group (vehicle, no ticagrelor), n=5, mean ± SD) was 1060 ± 291 ng·h/mL. Also, under setting [1], the total exposure AUC(0-inf) – broadly, the area under the concentration-time curve extrapolated to infinity – amounted to 3580 ± 736 ng·h/mL; the highest concentration (Cmax) (as a rule, the maximum level reached in the sampled fluid or tissue) is 691 ± 238 ng/mL; the half-life – broadly, the time in which the quantity being followed falls by half – was 5.12 ± 1.65 h; the MRT inf is 5.97 ± 1.11 h. The MRT last under setting [1] is 5.18 ± 0.91 h. Under setting [2], the AUC(0-inf) was determined as 1070 ± 299 ng·h/mL, the Cmax amounted to 221 ± 53.3 ng/mL, the half-life is 2.64 ± 0.72 h and the MRT inf worked out at 4.41 ± 0.79 h. Also, the MRT last under setting [2] was 4.32 ± 0.66 h. The area under the curve AUC(0-t) (male, Sprague-Dawley, rat, plasma, 10 mg/kg, rivaroxaban 10 mg/kg oral, rats with ticagrelor pre-treatment 10 mg/kg/day for 14 days) stood at 3480 ± 754 ng·h/mL. Further, under setting [3], the area under the curve AUC(0-inf) is 1070 ± 299 ng·h/mL and the AUC(0-t) was 1060 ± 291 ng·h/mL. Besides, the total exposure AUC(0-inf) (male, Sprague-Dawley, rat, plasma, rivaroxaban 10 mg/kg oral, rats with ticagrelor pre-treatment 10 mg/kg/day for 14 days) worked out at 3580 ± 736 ng·h/mL. For the setting “male, Sprague-Dawley, rat, plasma, rivaroxaban 10 mg/kg oral, rats pre-treated with ticagrelor 10 mg/kg/day for 14 days”, the CLint scaled is 48.2 mL/min/kg. Moreover, under setting [4], the time to peak (Tmax) (as a rule, the time at which the peak concentration occurs) is 2 ± 0.71 h and the CLint scaled is 166 mL/min/kg. Also, under setting [5], the “increase of AUC value of rivaroxaban” value stood at 3.3 fold and the “increase of Cmax value of rivaroxaban” value was found to be 3.1 fold. Besides, under setting [6], the T max is 2.00 ± 0.71 h and the Vz is listed as 21.89 ± 9.00 L/kg. Besides, the Vz (rivaroxaban 10 mg/kg oral, rats, control group (no ticagrelor)) turned out to be 36.23 ± 5.48 L/kg.
